Test results from patent publication EP0503079A1, “PYRIDAZINONE-SUBSTITUTED ETHYNYLPHENYL DERIVATIVE AND REMEDY FOR CIRCULATORY ORGAN DISEASE CONTAINING THE SAME AS ACTIVE INGREDIENT” (KAKEN PHARMACEUTICAL CO., LTD., priority 1990, dated 1992).

Experiments:
[1] = test system: Slc-ddy male mice; assay: Activity on hypoxia induced in decapitation of mice (gasping time); assay type: in vivo; design: dose or concentration left out as unconfirmed; details: gasping time after decapitation, one hour after oral administration
Method: In each group, 3 Slc-ddy male mice (4 weeks) were employed. Each test compound was suspended or dissolved in a 0.5 % methyl cellulose solution. After the concentration was adjusted, the dose became […], the solution was administered orally. One hour after the administration, mice were decapitated and gasping time was measured.
(§1) Inhibition rate was calculated by the following formula. [formula]

[2] = test system: Aortae abdominalis of male Wister rats; assay: Anti-norepinephrine activity on rat abdominal aorta strip preparations (auto-Magnus apparatus); details: tension by norepinephrine (10⁻⁷M) regarded as 100
Method: Aortae abdominalis of male Wister rats (8-12 weeks) were delivered and cut in spiral-shape to be strip preparations. Each test compounds was disolved in DMSO. Then, the solution was diluted with distilled water and prepared to be desired concentration. Using an auto-Magnus apparatus, as to the vasoconstriction after adding norepinephrine, contractive forces were measured under the existence of the test compounds.

[3] = test system: platelet aggregation; assay: Inhibitory activity on platelet aggregation (turbidimetry); assay type: cell-based, New Zealand White male rabbits; details: for Inhibition rate (%) ADP aggregation: 0.6 µg/mℓ ADP; for Inhibition rate (%) PAF aggregation: 5 x 10⁻⁹M PAF; for Inhibition rate (%) Collagen aggregation: 2 µg/mℓ collagen
Method: Blood was exsanguinated from New Zealand White male rabbits weighing from 2.5 to 3.0 kg and subjected to the test. Each test compound was dissolved in ethanol and prepared to be 1 x 10⁻⁵, 1 x 10⁻⁶ or 1 x 10⁻⁷M respectively. Each aggregation response was measured by turbidimetry. Concentration of aggregating agent was 2 µg/mℓ of collagen, 0.6 µg/mℓ of adenosine 5'-diphosphate (ADP) or 5 x 10⁻⁹M of platelet aggregating factor (PAF).
as §1

[4] = test system: Slc: ddy male mice; assay: Activity on stress ulcers (restraint and water immersion); assay type: in vivo; details: length of ulcer in glandular stomach; 30 mg/kg orally; restrained and immersed in water of 23°C for 7 hours
Method: In each group, 5 Slc: ddy male mice (6 weeks) were employed. Each test compound was kneaded with Tween-80 followed by adding a 0.5 % solution of gum arabic to prepare 30 mg/10 mℓ solution (solution containing 1.5 % Tween-80 and 0.5 % gum arabic). Then, the preparation was administered orally in a rate of 30 mg/kg. After the administration, the mice were restrained and immersed in a water tank of 23°C for 7 hours. Then, length of the ulcer in the glandular stomach was measured by a stereoscopic microscope (x 10).

[5] = Acute toxicity; assay type: in vivo, mice; details: mouse, in vivo; oral administration, death rate after 7 days; read-out: LD₅₀
Method: In each group, 6 Slc: ddy male mice weighing 25 to 29 g (6 weeks) were employed. Each compound was administered orally thereto and a value of acute toxicity was evaluated with death rate after 7 days.

Row | Compound | Inhibition rate (%) [1] [%] | Contractive force ([2]; compound 10⁻⁷ M) | Contractive force ([2]; compound 10⁻⁸ M) | Contractive force ([2]; compound 10⁻⁹ M) | Inhibition rate (%) ADP aggregation ([3]; compound 10⁻⁵ M) [%] | Inhibition rate (%) PAF aggregation ([3]; compound 10⁻⁵ M) [%] | Inhibition rate (%) ADP aggregation ([3]; compound 10⁻⁶ M) [%] | Inhibition rate (%) Collagen aggregation ([3]; compound 10⁻⁶ M) [%] | Inhibition rate (%) ADP aggregation ([3]; compound 10⁻⁷ M) [%] | Inhibition rate (%) Collagen aggregation ([3]; compound 10⁻⁷ M) [%] | Inhibition rate (%) [4] [%] | LD50 at 168 h [5] [mg/kg]
1 | 2,6-dimethyl-3-methoxycarbonyl-5-{4-(6-oxo-1,4,5,6-tetrahydropyridazinon-3-yl)phenyl}aminocarbonyl-4-[3-{2-(4-nitro)phenyl)ethynyl]phenyl-1,4-dihydropyridine [Compound 4] | 13.2 | 13.2 | 71.5 | 93.2 | 91 | 64 | 58 | 92 | 22 | 24 | – | –
2 | 2,6-dimethyl-3-methoxycarbonyl-5-{4-(6-oxo-1,4,5,6-tetrahydropyridazinon-3-yl)phenyl}aminocarbonyl-4-{3-(1-heptyn-1-yl)}phenyl-1,4-dihydropyridine [Compound 3] | – | 12.5 | 68.3 | 92.4 | 87 | 65 | 59 | 93 | 18 | 28 | – | –
3 | 2,6-dimethyl-3-methoxycarbonyl-5-{4-(6-oxo-1,4,5,6-tetrahydropyridazinon-3-yl)phenyl}aminocarbonyl-4-{3-(6-morpholino-1-hexyn-1-yl)}phenyl-1,4-dihydropyridine [Compound 5] | 3.2 | – | – | – | 89 | 59 | 61 | 89 | 20 | 26 | – | –
4 | 2,6-dimethyl-4-(3-ethynylphenyl)-3-methoxycarbonyl-5-{4-(4-methyl-6-oxo-1,4,5,6-tetrahydropyridazinon-3-yl)phenyl}aminocarbonyl-1,4-dihydropyridine [Compound 16] | 3.4 | 17.9 | 86.4 | 105.3 | 88 | 66 | 65 | 97 | 19 | 25 | – | –
5 | 2,6-dimethyl-4-(3-ethynylphenyl)-3-methoxycarbonyl-5-{4-(5-methyl-6-oxo-1,4,5,6-tetrahydropyridazinon-3-yl)phenyl}aminocarbonyl-1,4-dihydropyridine [Compound 15] | 5.2 | 9.8 | 68.3 | 85.6 | 88 | 40 | 47 | 96 | 16 | 28 | 98.1 | –
6 | 4-{3-(2-tert-butoxycarbonyl)ethynyl}phenyl-2,6-dimethyl-5-{4-(6-oxo-1,4,5,6-tetrahydropyridazinon-3-yl)phenyl}aminocarbonyl-3-methoxycarbonyl-1,4-dihydropyridine [Compound 8] | 12.8 | – | – | – | – | – | – | – | – | – | 75.4 | –
7 | C#Cc1cccc(C2C(C(=O)Nc3ccc(C4=NNC(=O)CC4)cc3)=C(C)NC(N)=C2C(=O)OCC)c1 (stereo not drawn) [Compound 12, 2-amino-3-ethoxycarbonyl-4-(3-ethynylphenyl)-6-methyl-5-{4-(6-oxo-1,4,5,6-tetrahydropyridazinon-3-yl)phenyl)aminocarbonyl-1,4-dihydropyridine] | 30.2 | 10.3 | 69.4 | 90.2 | 96 | 72 | 81 | 96 | 35 | 33 | 98.7 | 1200
8 | C#Cc1ccc(OC)c(C2C(C(=O)Nc3ccc(C4=NNC(=O)CC4)cc3)=C(C)NC(C)=C2C(=O)OCC)c1 (stereo not drawn) [Compound 18, 2,6-dimethyl-4-(3-ethynyl-6-methoxyphenyl)-3-ethoxycarbonyl-5-{4-(6-oxo-1,4,5,6-tetrahydropyridazinon-3-yl)phenyl}aminocarbonyl-1,4-dihydropyridine] | – | 16.3 | 90.5 | 111.2 | 82 | 61 | 61 | 100 | 19 | 30 | – | –
9 | C#Cc1cccc(C2C(C(=O)Nc3ccc(C4=NNC(=O)CC4CC)cc3)=C(C)NC(C)=C2C(=O)OC)c1 (stereo not drawn) [Compound 19, 2,6-dimethyl-4-(3-ethynylphenyl)-5-{4-(4-ethyl-6-oxo-1,4,5,6-tetrahydropyridazinon-3-yl)phenyl} aminocarbonyl-3-methoxycarbonyl-1,4-dihydropyridine] | 5.6 | 14.9 | 84.9 | 101.1 | 83 | 38 | 63 | 91 | 20 | 28 | 92.6 | –
10 | C#Cc1cccc(C2C(C(=O)Nc3ccc(C4=NNC(=O)CC4)cc3)=C(C)NC(C)=C2C(=O)OCC)c1 (stereo not drawn) [Compound 20, 2,6-dimethyl-4-(3-ethynylphenyl)-3-ethoxycarbonyl-5-{4-(6-oxo-1,4,5,6-tetrahydropyridazinon-3-yl)phenyl}aminocarbonyl-1,4-dihydropyridine] | – | – | – | – | 93 | 70 | 68 | 95 | 20 | 23 | – | –
11 | C#Cc1cccc(C2C(C(=O)Nc3ccc(C4=NNC(=O)CC4)cc3)=C(C)NC(C)=C2C(=O)OCCOC)c1 (stereo not drawn) [Compound 22, 2,6-dimethyl-4-(3-ethynylphenyl)-3-methoxyethoxycarbonyl-5-{4-(6-oxo-1,4,5,6-tetrahydropyridazinon-3-yl)phenyl}aminocarbonyl-1,4-dihydropyridine] | – | – | – | – | 86 | 48 | 55 | 100 | 14 | 29 | – | –
12 | C#Cc1cccc(C2C(C(=O)Nc3ccc(C4=NNC(=O)CC4C)cc3)=C(C)NC(N)=C2C(=O)OCC)c1 (stereo not drawn) [Compound 23, 2-amino-4-(3-ethynylphenyl)-3-ethoxycarbonyl-6-methyl-5-{4-(6-oxo-4-methyl-1,4,5,6-tetrahydropyridazinon-3-yl)phenyl}aminocarbonyl-1,4-dihydropyridine] | – | – | – | – | 86 | 47 | 56 | 100 | 18 | 30 | 91.7 | –
13 | CCOC(=O)C1=C(N)NC(C)=C(C(=O)Nc2ccc(C3=NNC(=O)CC3)cc2)C1c1cccc(C#CC(C)(C)O)c1 (stereo not drawn) [Compound 24, 2-amino-4-{3-(3-hydroxy-3-methyl)-1-butyn-1-yl}phenyl-3-ethoxycarbonyl-6-methyl-5-{4-(6-oxo-1,4,5,6-tetrahydropyridazinon-3-yl)phenyl}aminocarbonyl-1,4-dihydropyridine] | 24.2 | 11.1 | 72.4 | 88.8 | 92 | 60 | 70 | 90 | 27 | 29 | – | 1100
